The results in this text go back to patent US5652366A, “DI (1R)-(-)camphosulfonic acid) salt, preparation thereof and use thereof” (Rhone-Poulenc Rorer Pharmaceuticals Inc., priority 1995, dated 1997).

Each structure is given as a SMILES string. Read-outs that look alike come from different tables or passages of the source.

One assay has as its target A2 adenosine receptor (Rattus norvegicus, UniProt P30543). Briefly: biochemical. The following applies: rat brain striatum membranes, 3H-CGS 21680; Table II; read-out: Adenosine Receptor Binding Activity/IC50 (nM) A2.
A further assay has as its system swine coronary arteries. Put plainly: In vitro vasorelaxation in isolated swine coronary arteries (PGF2α-contracted rings). In kind it is cell-based. The following applies: Sus scrofa; for EC50: Table II. Here is the method:
Swine coronary arteries were obtained from a local slaughter house, dissected carefully and cleaned of fat, blood and adhering tissue. Rings approximately 2-3 mm wide were cut and transferred to water-jacketed tissue baths (10 ml) filled with warm (37° C.), oxygenated (O2 /CO2 :95%/5%) Krebs-Henseleit buffer and mounted on L-shaped hooks between stainless steel rods and a force transducer. […] Rings were equilibrated for 90 minutes with frequent buffer changes at a resting tension of 5 g In order to assure optimal tension development, arterial rings were primed twice with 36 mM KCl and once with 10 μm. PGF2α, before being exposed to 3 μM PGF2α. […] Tension achieved with 3 μM PGF2α was considered .equivalent to 100%; all other values were expressed as a percentage of that maximum.

A further assay deals with T1, A1 adenosine receptor (Rattus norvegicus, UniProt P25099).
T1 sequence (P25099 1-326): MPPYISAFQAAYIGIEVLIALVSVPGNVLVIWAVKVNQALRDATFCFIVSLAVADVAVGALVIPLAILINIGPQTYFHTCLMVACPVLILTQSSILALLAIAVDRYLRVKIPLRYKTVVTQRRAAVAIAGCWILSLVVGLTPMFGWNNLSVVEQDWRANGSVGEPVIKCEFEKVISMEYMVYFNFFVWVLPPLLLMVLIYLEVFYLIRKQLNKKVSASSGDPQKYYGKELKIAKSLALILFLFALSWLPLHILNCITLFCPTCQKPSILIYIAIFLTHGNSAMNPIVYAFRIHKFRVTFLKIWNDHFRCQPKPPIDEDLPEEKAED
Briefly: biochemical. The following applies: rat whole brain membranes, 3H-CHA; Table II; read-out: Adenosine Receptor Binding Activity/IC50 (nM) A1. Here is the method:
Non-specific binding was assessed in the presence of 1 mM theophylline.
The assays were run in glass test tubes in duplicate at 25° C. Once the membranes were added, the tubes were vortexed and incubated at 25° C. for 60 minutes (A1 assay) or 90 minutes (A2 assay) on a rotary shaker. The assay tubes were vortexed halfway through the incubation and again near the end. The assays were terminated by rapid filtration through 2.4 cm GF/B filters using a Brandel Cell Harvestor. The test tubes were washed three times with cold 50 mM tris-HCl (pH 7.7 or 7.4), with filtration being completed within 15 seconds. The damp filter circles were placed in glass scintillation vials filled with 10 ml of Aquasol II (New England Nuclear). The vials were allowed to shake overnight on a rotary shaker and were placed into a liquid scintillation analyzer for two minute counts. IC50 values for receptor binding, i.e. the concentration at which a compound of the invention displaced the radiolabeled standard, were obtained using a curve-fitting computer program (RS/1, Bolt, Beranek and Newman, Boston, Mass.).

Assay [1] concerns normotensive anesthetized rat. Put plainly: In vivo mean arterial pressure and heart rate in normotensive anesthetized rat. The following applies: iv. Here is the method:
Normotensive rats were anesthetized with sodium pentobarbital (50 mg/kg, j.p.) and placed on a heated surgical table. Cannulas were inserted into the femoral artery and […] to allow the measurement of arterial pressure and to facilitate the intravenous administration of test compounds. The animals was allowed to equilibrate for 10 minutes after surgery. Mean arterial pressure was continuously measured and recorded and heart rate was monitored using the arterial pressure pulse to trigger a cardiotachometer. After baseline parameters were established and recorded, increasing doses (1, 3, 10, 30, 100, 300 and 1000 μg/kg) of the compound of the invention to be tested were administered intravenously. Maximal changes in the cardiovascular parameters were observed after each dose of the adenosine agonist. Only one compound was administered per rat.

A further assay concerns rat adipocytes. Briefly: In vitro lipolysis assay in rat adipocytes (glycerol production). The format is cell-based. Conditions: Rattus norvegicus, Adipocyte, read-out: EC50 (50% inhibition of glycerol production). The procedure: Adipose tissue is removed from anesthetized rats and rinsed twice in incubation medium (2.09 g sodium bicarbonate and 0.04 g EDTA, disodium salt, in 1 L Krebs buffer). Each rat (300-350 g) yields approximately 4 ml of adipose tissue. The adipose tissue (35 ml) is cut into small pieces with scissors and washed with incubation medium (50 ml). The mixture is poured into the barrel of a 50 ml syringe to which is attached a short piece of clamped tubing instead of a needle. The aqueous phase is allowed to drain. A second wash with incubation medium is passed through the syringe. The tissue is added to 50 ml of collagenase solution (collagenase(90 mg), bovine serum albumin (BSA) (500 mg), and 0.1 M calcium chloride solution (1 ml), in incubation medium (50 ml)) in a 1 L bottle. The mixture is shaken in an environmental at 37° C. for about 60 minutes under an atmosphere of 95% oxygen/5% carbon dioxide to effect digestion of the tissue. The dispersed cells are poured through 2 layers of cheese cloth into a 100 ml plastic beaker. The undigested clumps in the cloth are rinsed once with incubation medium (20 ml). The cells in the beaker are centrifuged in 2 plastic tubes for 30 seconds at room temperature at 300 rpm. The aqueous phase is aspirated from beneath the loosely packed layer of floating fat cells and discarded. The adipocytes are gently poured into a 250 ml plastic beaker containing 100 ml of rinse solution (1 g BSA per 100 ml incubation medium). After gentle stirring the centrifugation step is repeated. Another wash with rinse solution follows. The cells are pooled and their volume is estimated with a graduated cylinder. The adipocytes are diluted in twice their volume of assay buffer (incubation medium (120 ml), BSA (1.2 g), pyruvic acid (13 mg)).
The assay is performed in 20 ml plastic scintillation vials and the total assay volume is 4.2 ml. Assay buffer (2.5 ml), diluted adipocytes (1.5 ml), and a solution of the compound to be tested (12.3 μL) adenosine agonist (12.3 μl; varying concentration) is incubated in the environmental shaker for 15 minutes, then the reaction is started with norepinephrine solution (41.2 μL) (10 nM, in a carrier solution containing water (100 ml), BSA (4 mg), and 0.1 M EDTA (20 I. LL))and adenosine deaminase (1 μg/ml, 41.2 μl). After sixty minutes in the shaker the reaction is terminated by putting the vials on ice. […] The hard lipid layer is removed by aspiration and the aqueous layer is assayed for glycerol (400 μl of sample). The positive control is done in the absence of any adenosine agonist, substituting water in place of the solution to be tested.

The mark [2] stands for this setting: 50% reduction in tension, 3 μM PGF2α, read-out: Vasorelaxation in Swine Coronary Artery/IC50.
The mark [3] stands for this setting: dose lowering heart rate by 25%, read-out: Blood Press/Heart Rate Anesthetized Rat HR/ED25.
Where [4] appears, read: dose lowering mean arterial pressure by 25%, read-out: Blood Press/Heart Rate Anesthetized Rat MAP/ED25.

A2 adenosine receptor, sequence (P30543 whole entry): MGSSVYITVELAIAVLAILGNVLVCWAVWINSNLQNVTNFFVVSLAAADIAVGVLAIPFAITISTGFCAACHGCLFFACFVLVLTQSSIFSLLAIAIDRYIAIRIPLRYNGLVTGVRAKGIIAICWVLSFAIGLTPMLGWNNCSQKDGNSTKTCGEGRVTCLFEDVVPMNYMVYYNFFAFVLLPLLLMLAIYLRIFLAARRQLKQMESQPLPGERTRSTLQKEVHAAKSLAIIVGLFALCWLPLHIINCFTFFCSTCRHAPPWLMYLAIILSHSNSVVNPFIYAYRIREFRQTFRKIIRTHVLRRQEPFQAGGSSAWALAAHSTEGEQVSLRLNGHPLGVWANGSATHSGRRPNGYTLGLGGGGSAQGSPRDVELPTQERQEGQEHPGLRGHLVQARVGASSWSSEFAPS

Take `CCNC(=O)[C@H]1C[C@@H](n2cnc3c(N[C@H](C)Cc4ccc(Cl)s4)ncnc32)[C@@H]2OC(C)(C)O[C@@H]21` [6(1), (-)-[2S-[2α,3α-dimethylmethylenedioxy-4-β-[N6-[2-(5-chloro-2-thienyl)-(1R)-1-methylethyl]amino]-9-adenyl]cyclopentane]-1-β-N-ethylcarboxamide]: the IC50 on A2 adenosine receptor and on A1 adenosine receptor was > 1000 nM in each case. Moreover, the EC50 with swine coronary arteries (setting [2]) turned out to be 19.1 µM.
Regarding `OC[C@H]1O[C@@H](n2cnc3c(NCCNc4nc5ccccc5s4)ncnc32)[C@H](O)[C@@H]1O` [Example 9, N^6-[2-(2'-aminobenzothia-zolyl)ethyl]adenosine], the IC50 amounted to 1000 nM at A2 adenosine receptor and 4 nM at A1 adenosine receptor. Also, in the assay on swine coronary arteries (setting [2]), the EC50 was 11.9 µM. Also, the ED25 came to 4 µg/kg in assay [1] (setting [3]) and 5 µg/kg in assay [1] (setting [4]).
As to `CCOc1ccc2nc(SCCNc3ncnc4c3ncn4[C@@H]3O[C@H](CO)[C@@H](O)[C@H]3O)sc2c1` [Example 11], the IC50 at A2 adenosine receptor was > 1000 nM; on A1 adenosine receptor it was 7.4 nM.
Regarding `Cc1ncsc1CCNc1ncnc2c1ncn2[C@@H]1O[C@H](CO)[C@@H](O)[C@H]1O` [Example 12, N^6-[2-(4'-methylthiazol-5'-yl)-ethyl]adenosine], the IC50 at A2 adenosine receptor amounted to 224 nM; on A1 adenosine receptor it was 23 nM. Moreover, the EC50 in the assay on swine coronary arteries (setting [2]) came out at 0.5 µM. The ED25 in assay [1] (setting [3]) came to 17 µg/kg; in assay [1] (setting [4]), 4 µg/kg.
The matching figures for `OC[C@H]1O[C@@H](n2cnc3c(NCCc4nccs4)ncnc32)[C@H](O)[C@@H]1O` [Example 13, N^6-[2-(2'-thiazolyl)ethyl]-adenosine]: 191 nM, 41 nM, 0.24 µM, > 10 µg/kg and 3 µg/kg.
As to `Cc1nc(CCNc2ncnc3c2ncn3[C@@H]2O[C@H](CO)[C@@H](O)[C@H]2O)cs1` [Example 14, N^6-[2-(2'-methyl-4'-thiazolyl)-ethyl]adenosine], the IC50 on A2 adenosine receptor is > 1000 nM; on A1 adenosine receptor it was 79.4 nM.
For the molecule `C[C@H](Cc1cc2ccccc2s1)Nc1ncnc2c1ncn2[C@@H]1O[C@H](CO)[C@@H](O)[C@H]1O` [Example 15, N^6-[(R)-1-methyl-2-(2'benzo-[b]-thiophenyl)ethyl]adenosine], the IC50 on A2 adenosine receptor was 1000 nM. Moreover, in the assay on swine coronary arteries (read-out: Vasorelaxation in Swine Coronary Artery/IC50 (μM), 50% reduction in tension, 3 μM PGF2α), the EC50 is 2.45 µM. In addition, the figures for the ED25 in assay [1] (setting [3]) and in assay [1] (setting [4]) were 1.4 µg/kg and 1.5 µg/kg, respectively.
With `CC(C)(Cc1cccs1)Nc1ncnc2c1ncn2[C@@H]1O[C@H](CO)[C@@H](O)[C@H]1O` [Example 17, N^6-[2-(1,1-dimethyl-2'-thiophenyl)ethyl]adenosine], the IC50 was 5250 nM at A2 adenosine receptor and 67.6 nM at A1 adenosine receptor. In addition, the EC50 in the assay with swine coronary arteries (setting [2]) is 18.8 µM.
With `Cc1csc(CNc2ncnc3c2ncn3[C@@H]2O[C@H](CO)[C@@H](O)[C@H]2O)n1` [Example 18, N^6-[2-(4'-methyl-2'-thiazolyl)-methyl]adenosine], the results for the IC50 at A2 adenosine receptor and on A1 adenosine receptor were 52 nM and 166 nM, respectively. The EC50 in the assay on swine coronary arteries (setting [2]) is 0.46 µM. In addition, the ED25 is > 10 µg/kg in assay [1] (setting [3]) and 2 µg/kg in assay [1] (setting [4]).
With `OC[C@H]1O[C@@H](n2cnc3c(NCc4nc(-c5ccccc5)cs4)ncnc32)[C@H](O)[C@@H]1O` [Example 19], the IC50 came to 1000 nM on A2 adenosine receptor and 36 nM on A1 adenosine receptor. The EC50 in the assay with swine coronary arteries (setting [2]) was determined as 0.75 µM.
For `CCNC(=O)[C@H]1O[C@@H](n2cnc3c(NCCNc4nc5ccccc5s4)ncnc32)[C@H](O)[C@@H]1O` [Example 23], the IC50 at A2 adenosine receptor amounted to 891 nM; at A1 adenosine receptor, 0.32 nM. The EC50 with swine coronary arteries (setting [2]) worked out at 4.4 µM. For the same molecule, the ED25 in assay [1] (setting [3]) is 7 µg/kg; in assay [1] (setting [4]), 6 µg/kg.
As to `C[C@H](Cc1sccc1Cl)Nc1ncnc2c1ncn2[C@@H]1O[C@H](CO)[C@@H](O)[C@H]1O` [Example 32, N^6-[1-methyl-2-(3-chlorothien-2-yl)ethyl]adenosine], the IC50 on A1 adenosine receptor was determined as 0.049 nM.
As to `CCNC(=O)[C@H]1C[C@@H](n2cnc3c(N[C@H](CC)Cc4sccc4Cl)ncnc32)[C@H](O)[C@@H]1O` [Example 34], the IC50 on A2 adenosine receptor turned out to be 23 nM; at A1 adenosine receptor it was 1.6 nM. Besides, the EC50 in the assay with swine coronary arteries (setting [2]) amounted to 0.072 µM.
With `CCNC(=O)[C@H]1C[C@@H](n2cnc3c(N[C@H](C)Cc4ccc(Cl)s4)ccnc32)[C@H](O)[C@@H]1O` [Example 36, [1S-[1α,2β,3β,4α(S*)]]-4-[7-[[2-(5-chloro-2-thienyl)-1-methylethyl]amino]-3 H-imidazo[4,5-b]pyridin-3-yl]-N-ethyl-2,3-dihydroxycyclopentanecarboxamide], the IC50 amounted to 43.4 nM on A2 adenosine receptor and 8.8 nM on A1 adenosine receptor. In the assay on swine coronary arteries (setting [2]), the EC50 is 0.493 µM.
As for `CCNC(=O)[C@H]1C[C@@H](n2cnc3c(N[C@H](C)Cc4ccc(Cl)s4)ncnc32)[C@@H]2OC(=O)O[C@@H]21` [Example 44, (2S)-2α,3α-dihydroxy-4β-[N6-[2-(5-chloro-2-thienyl)-(1R)-1-methylethyl]amino-9-adenyl]cyclopentane-1β-N-ethylcarboxamide-2,3-carbonate], the results for the IC50 on A2 adenosine receptor and on A1 adenosine receptor were 331 nM and 55 nM, respectively. Also, the EC50 in the assay with swine coronary arteries (setting [2]) was determined as 0.316 µM.
Take `C[C@H](Cc1ccccc1)Nc1ncnc2c1ncn2[C@@H]1O[C@H](CO)[C@@H](O)[C@H]1O` [R-PIA, R-phenylisopropyladenosine, reference compound]: the IC50 with swine coronary arteries (read-out: Vasorelaxation (IC50)) stood at 760 nM. Further, the EC50 with rat adipocytes was 1 nM.
